Counter-ions that a name gives are not always drawn. Like-named read-outs stand apart in the source and are kept apart here. Each block holds one compound with its values, some of them ahead of it.
What was measured:
[1] = base (source of basic counter ion) used in salt screening, Table 1; cited from earlier work
[2] = Measured pKa of bimatoprost acid, used for the Henderson-Hasselbalch fit; type: physicochemical; conditions: measured pKa used to fit solubility vs. pH plot
[3] = Gravimetric vapor sorption (GVS) analysis; type: physicochemical
Protocol: The salt was then crystallized from ethyl acetate as follows. The lyophilized solid sample in ethyl acetate was subjected to initial heat/cool cycles using an Anachem React-Array. The sample was then subjected to three heat/cool cycles by using the following procedure: heating to 50° C. at 5° C./min, holding at 50° C. for 30 minutes, followed by cooling to 0° C. at 0.1° C./min, holding at 0° C. for 1 hour under constant stirring at 500 rpm. The recovered material (crystalline form 1) was analyzed by XRPD (FIG. 6), ^1H NMR, thermal analysis, and gravimetric vapor sorption (GVS) analysis, as summarized in Table 2.
Without being bound by any particular theory, the significant uptake of moisture may be a result of the large specific surface area of the material. On desorption, the adsorbed water was rapidly lost with no equilibrium established. At the end of the gravimetric vapor sorption (GVS) cycle, at 40% RH, the overall sample mass increased by 5 wt %.

[4] = Dissolution rate compared with the free acid; type: physicochemical; conditions: compared with bimatoprost free acid
[5] = Physical stability on storage at controlled temperature/relative humidity; type: physicochemical
[6] = pH-solubility determination (shake flask in aqueous media, HPLC quantitation); type: physicochemical; conditions: thermodynamic from solid
Protocol: The pH was checked, and adjusted if necessary, at intervals of 1, 5, 23, 28 and 47 hrs. An aliquot of sample was taken off at 24 hrs and the final pH was recorded. The suspension was then filtered through a glass fiber C filter. The filtrate was then diluted by an appropriate factor. This was repeated at 48 hours. Quantitation was by HPLC with reference to 6 standard solutions of concentrations between 0.3873-0.0008 mg/ml dissolved in 66:21:13 H2O:ACN:MeOH.

Compound: CCN(CC)CCO [2-diethylamino ethanol]
pKa [1]: 9.58

Compound: C[N+](C)(C)CCO [Choline]
pKa [1]: 11.00

Compound: NC(=O)NCCC[C@H](N)C(=O)O [Citrulline]
pKa [1]: 7.00

Compound: NCCN [Ethylenediamine]
pKa [1]: 10.09

Compound: OCCN1CCOCC1 [Hydroxyethyl-morpholine]
pKa [1]: 7.39

Compound: CCNC[C@H](O)[C@@H](O)[C@H](O)[C@H](O)CO [N-ethyl-glucamine]
pKa [1]: 8.03

pKa [2]: 4.76
Compound: O=C(O)CCC/C=C\C[C@@H]1[C@@H](/C=C/[C@@H](O)CCc2ccccc2)[C@H](O)C[C@@H]1O [bimatoprost acid, (Z)-7-[3,5-Dihydroxy-2-((E)-3-hydroxy-5-phenyl-pent-1-enyl)-cyclopentyl]-hept-5-enoic acid]

GVS analysis result ([3]; 90% RH): 90% RH, no deliquescence, no hydrate | overall sample mass increase at the end of the GVS cycle ([3]; at 40% RH, end of GVS cycle): 5 wt % | XRPD re-analysis of the sample post GVS analysis (form change) ([3]; post GVS analysis, FIG. 3): no change in the crystalline Form 1 | physically stable for (time) ([5]; 25° C./60% relative humidity (RH), open container closure): > 3 months | physically stable for (time) ([5]; 40° C./75% RH, closed container closure): > 3 months | solubility thermodynamic ([6]; 25 °C, aqueous buffer, at pH 6.8, read-out: solubility): ~250 mg/mL | solubility at 48 h ([6]; 25 °C, pH 2, aqueous buffer, pH 2 (solubility of the free acid), 25° C., FIG. 5, read-out: intrinsic solubility): 1.39 mg/mL | solubility at 48 h ([6]; 25 °C, pH 6.5, aqueous buffer, at pH 6.5, see FIG. 5, read-out: solubility): ≥ 250 mg/mL | solubility at 48 h ([6]; 25 °C, pH 6.5, aqueous buffer, pH above 6.5, 25° C., FIG. 5, read-out: solubility of the salt): > 250 mg/mL | solubility thermodynamic ([6]; pH 6.5, aqueous buffer, pH above 6.5, 25° C., FIG. 5, read-out: solubility of the salt): ≥ 250 mg/mL
Compound: O=C(O)CCC/C=C\C[C@@H]1[C@@H](/C=C/[C@@H](O)CCc2ccccc2)[C@H](O)C[C@@H]1O [tromethamine salt of (Z)-7-[3,5-Dihydroxy-2-((E)-3-hydroxy-5-phenyl-pent-1-enyl)-cyclopentyl]-hept-5-enoic acid]
moisture uptake behaviour on storage ([3]; stored at or above 80% RH): behaves hygroscopically, with significant moisture uptake observed | dissolution rate relative to the free acid [4]: faster dissolution rate than the free acid

Source: patent US10273206B2 (ALLERGAN, INC., priority 2014, dated 2019)
